Data as given in paper PMC3280239, “Virtual Screening, Identification and In Vitro Testing of Novel Inhibitors of O-Acetyl-L-Serine Sulfhydrylase of Entamoeba histolytica” (PLoS ONE, 2012).
Where two headings read alike, the source gives them in different places.

Key:
[1] = molecular target: T1, O-acetyl-L-serine sulfhydrylase (EhOASS) (Entamoeba histolytica, UniProt O15570); experiment: PLP fluorescence titration (ex […] nm, em […] nm); also […] inhibition of purified enzyme at […]; assay type: binding
T1 sequence (O15570 entry or part of it): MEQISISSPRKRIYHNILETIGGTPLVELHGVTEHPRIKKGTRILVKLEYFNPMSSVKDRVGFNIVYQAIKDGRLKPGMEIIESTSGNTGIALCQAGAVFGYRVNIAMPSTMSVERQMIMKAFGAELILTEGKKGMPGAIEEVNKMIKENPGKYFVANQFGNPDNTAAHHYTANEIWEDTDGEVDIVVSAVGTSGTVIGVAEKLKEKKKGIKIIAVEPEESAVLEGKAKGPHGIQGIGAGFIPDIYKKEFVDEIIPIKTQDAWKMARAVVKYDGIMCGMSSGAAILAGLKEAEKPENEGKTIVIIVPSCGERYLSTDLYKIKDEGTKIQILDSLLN

[2] = molecular target: T1, O-acetyl-L-serine sulfhydrylase (EhOASS); experiment: as above; assay type: binding; remark: listed apart in the source

COc1ccc(C2C(C(C)=O)=C(O)C(=O)N2CCC(=O)O)cc1 (centres unmarked) [ZINC03984585, 3-[3-acetyl-4-hydroxy-2-(4-methoxyphenyl)-5-oxo-2,5-dihydro-1H-pyrrol-1-yl]propanoic acid]
Kd [1]: 180 nM

O=C(CSc1nc(O)cc(=O)[nH]1)c1c[nH]c2ccccc12 [ZINC08931589, 4-hydroxy-2-[2-(1H-indol-3-yl)-2-oxoethyl]sulfanyl-1H-pyrimidin-6-one]
Kd [2]: ~8.05 µM
